Measured values reported in US11034648B2, “Cystobactamide derivatives” (priority 2017, dated 2021).
In brackets after ≈: the same amount, converted by molar mass. Where two headings read alike, the source gives them in different places.

Columns and labels:
[1] = test system: E. coli ΔtolC; assay: microbe, parasite or virus in culture; assay type: cell-based; details: Escherichia coli, 16 h, read-out: MIC E. coli ΔtolC, small panel, Tables 1a/1b; no visual growth after approx. 16 h
Protocol: (§1) Cystobactamid derivatives synthesized were tested against relevant Gram negative and positive bacteria of clinical interest. Experimental procedures used for the biological characterization of the compounds are the same as previously described in WO 2016/082934.
(§2) Bacterial strains used in susceptibility assays (minimum inhibitory concentration, MIC) were either part of our internal strain collection or purchased from the German Collection of Microorganisms and Cell Cultures (Deutsche Sammlung von Mikroorganismen und Zellkulturen, DSMZ) and the American Type Culture Collection (ATCC). The susceptible E. coli strain (WT) and fluoroquinolone-resistant mutants E. coli WT-3 and WT-III were kindly provided by Prof Dr. P. Heisig, Pharmaceutical Biology and Microbiology, University of Hamburg, Germany. The efflux-deficient strain P. aeruginosa ΔmexAB was kindly provided by Prof Dr. S. Häußler, Institute for Molecular Bacteriology, TWINCORE, Hannover, Germany. All compounds were prepared as DMSO stocks and MIC values were determined in standard microbroth dilution assays in 96-well MTPs as described in Baumann et al., Angew Chem Int Ed Engl. 2014; 53(52):14605-9. In brief, overnight cultures of bacteria were diluted in either tryptic soy broth (TSB: 1.7% peptone casein, 0.3% peptone soymeal, 0.25% glucose, 0.5% NaCl, 0.25% K2HPO4; pH 7.3; S. pneumoniae and E. faecalis) or cation-adjusted Müller-Hinton Broth (BBL™, BD; all other bacteria) and adjusted to 10^4-10^6 cfu/mL. Bacteria were grown in the presence of the derivatives in serial dilution for approx. 16 h at 30-37° C. MIC values were determined and were defined as the antibiotic concentration at which no visual growth of bacteria was observed.

[2] = test system: P. aeruginosa ΔmexAB; assay: microbe, parasite or virus in culture; assay type: cell-based; details: Pseudomonas aeruginosa, 16 h, read-out: MIC P. aeruginosa ΔmexAB, efflux-deficient strain; small panel, Tables 1a/1b
Protocol: as §1, §2

[3] = test system: A. baumannii DSM-30008; assay: MIC, microbroth dilution susceptibility assay; assay type: cell-based; details: Acinetobacter baumannii, DSM30008; large panel, Table 2a
Protocol: as §1, §2

[4] = test system: C. freundii DSM-30039; assay: MIC, microbroth dilution susceptibility assay; assay type: cell-based; details: Citrobacter freundii, DSM30039; large panel, Table 2a
Protocol: as §1, §2

[5] = test system: E. aerogenes DSM-30053; assay: MIC, microbroth dilution susceptibility assay; assay type: cell-based; details: Klebsiella aerogenes, DSM30053; large panel, Table 2a
Protocol: as §1, §2

[6] = test system: E. coli WT DSM-1116; assay: MIC, microbroth dilution susceptibility assay; assay type: cell-based; details: Escherichia coli, no visual growth after approx. 16 h
Protocol: as §1, §2

[7] = test system: E. coli WT; assay: MIC, microbroth dilution susceptibility assay; assay type: cell-based; details: Escherichia coli; large panel, Table 2a
Protocol: as §1, §2

[8] = test system: K. pneumoniae DSM-30104; assay: MIC, microbroth dilution susceptibility assay; assay type: cell-based; details: Klebsiella pneumoniae, DSM30104; large panel, Table 2a
Protocol: as §1, §2

[9] = test system: P. aeruginosa WT PA14; assay: MIC, microbroth dilution susceptibility assay; assay type: cell-based; details: Pseudomonas aeruginosa
Protocol: as §1, §2

[10] = test system: P. vulgaris DSM-2140; assay: MIC, microbroth dilution susceptibility assay; assay type: cell-based; details: Proteus vulgaris, DSM2140; large panel, Table 2a
Protocol: as §1, §2

[11] = test system: S. aureus ATCC-29213; assay: MIC, microbroth dilution susceptibility assay; assay type: cell-based; details: Staphylococcus aureus, ATCC29213; large panel, Table 2a
Protocol: as §1, §2

[12] = test system: S. aureus Newman; assay: MIC, microbroth dilution susceptibility assay; assay type: cell-based; details: Staphylococcus aureus, NEWMAN, read-out: MIC S. aureus Newman
Protocol: as §1, §2

[13] = test system: S. marcescens DSM-30121; assay: MIC, microbroth dilution susceptibility assay; assay type: cell-based; details: Serratia marcescens, DSM30121; large panel, Table 2a
Protocol: as §1, §2

[14] = target: T1, E. coli gyrase (Escherichia coli, UniProt P0AES4+P0AES6); assay: E. coli gyrase supercoiling (sc) assay; assay type: biochemical; details: supercoiling assay kit, agarose gel quantification; read-out: Ec gyrase sc IC50
T1 construct: purchased Inspiralis
T1 sequence (P0AES4 whole entry, one chain of several): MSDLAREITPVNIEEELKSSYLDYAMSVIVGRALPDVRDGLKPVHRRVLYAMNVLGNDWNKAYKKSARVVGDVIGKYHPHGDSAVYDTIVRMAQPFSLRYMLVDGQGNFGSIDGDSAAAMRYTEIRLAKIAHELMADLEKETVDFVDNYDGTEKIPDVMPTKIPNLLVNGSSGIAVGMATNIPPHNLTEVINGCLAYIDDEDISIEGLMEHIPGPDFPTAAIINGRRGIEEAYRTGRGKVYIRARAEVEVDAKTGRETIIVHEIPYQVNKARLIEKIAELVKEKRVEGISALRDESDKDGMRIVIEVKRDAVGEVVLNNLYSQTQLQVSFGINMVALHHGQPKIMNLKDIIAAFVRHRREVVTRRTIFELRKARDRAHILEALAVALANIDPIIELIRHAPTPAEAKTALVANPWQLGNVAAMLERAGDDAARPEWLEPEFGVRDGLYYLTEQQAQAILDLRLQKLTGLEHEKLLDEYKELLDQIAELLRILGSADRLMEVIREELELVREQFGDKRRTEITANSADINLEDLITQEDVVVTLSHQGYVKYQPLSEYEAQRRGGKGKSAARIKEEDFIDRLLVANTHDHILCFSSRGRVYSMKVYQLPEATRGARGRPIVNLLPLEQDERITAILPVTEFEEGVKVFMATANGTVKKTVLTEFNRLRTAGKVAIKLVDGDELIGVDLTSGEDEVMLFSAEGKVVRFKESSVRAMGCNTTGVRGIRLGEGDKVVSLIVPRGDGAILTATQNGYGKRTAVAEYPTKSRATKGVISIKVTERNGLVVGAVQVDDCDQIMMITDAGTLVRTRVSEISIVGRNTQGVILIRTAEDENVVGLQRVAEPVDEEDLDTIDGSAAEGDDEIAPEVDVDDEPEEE
Protocol: The target activity on E. coli gyrase was assessed as described in Baumann et al., Angew Chem Int Ed Engl. 2014; 53(52):14605-9 using a commercial supercoiling (sc) assay kit from Inspiralis according to the manufacturer's instructions. The samples were separated on 0.8% (w/v) agarose gels and relaxed and supercoiled plasmid was visualized by ethidium bromide staining. Half-inhibitory concentrations (IC50) were calculated after image analysis and quantification (ImageJ) based on sigmoidal curve fitting (OriginPro).

[15] = DSM1116, small panel, Tables 1a/1b, read-out: MIC E. coli WT DSM-1116
[16] = PA14, small panel, Tables 1a/1b, read-out: MIC P. aeruginosa WT PA14
[17] = DSM1116, 16 h, read-out: MIC E. coli WT DSM-1116, small panel, Tables 1a/1b
[18] = PA14, read-out: MIC P. aeruginosa WT PA14

Row | SMILES | MIC [1] [µg/mL] | MIC [2] [µg/mL] | MIC [3] [µg/mL] | MIC [4] [µg/mL] | MIC [5] [µg/mL] | MIC [6, 15] [µg/mL] | MIC [7] [µg/mL] | MIC [8] [µg/mL] | MIC [9, 16] [µg/mL] | MIC [10] [µg/mL] | MIC [11] [µg/mL] | MIC ([12]; small panel, Tables 1a/1b) [µg/mL] | MIC [13] [µg/mL] | MIC [6, 17] [µg/mL] | IC50 [14] [nM] | MIC [9, 18] [µg/mL] | MIC [12] [µg/mL]
1 | CC(C)Oc1c(NC(=O)c2ccc(NC(=O)c3ccc(NC(=O)[C@H](CC(N)=O)NC(=O)c4ccc(NC(=O)c5ccc(C#N)cc5)cc4)cc3)c(OC(C)C)c2O)ccc(C(=O)O)c1O [Compound 62, (S)-4-(4-(4-(4-amino-2-(4-(4-cyanobenzamido)benzamido)-4-oxobutanamido)benzamido)-2-hydroxy-3-isopropoxybenzamido)-2-hydroxy-3-isopropoxybenzoic acid] | ≤ 0.03 | 1 (≈ 1.13 µM) | 0.5 (≈ 0.564 µM) | 0.125 (≈ 0.141 µM) | > 64 | 0.25 (≈ 0.282 µM) | 0.125 to 0.25 (≈ 0.141 to 0.282 µM) | > 64 | > 64 | 0.25 (≈ 0.282 µM) | 0.025 (≈ 0.0282 µM) | ≤ 0.03 | > 64 |  |  |  | 
2 | CC(C)Oc1c(NC(=O)c2ccc(NC(=O)c3ccc(NC(=O)[C@H](CC(N)=O)NC(=O)c4ccc(NC(=O)c5ccc([N+](=O)[O-])cc5)cc4)cc3)c(OC(C)C)c2O)ccc(C(=O)O)c1O [Compound 61, (S)-4-(4-(4-(4-amino-2-(4-(4-nitrobenzamido)benzamido)-4-oxobutanamido)benzamido)-2-hydroxy-3-isopropoxybenzamido)-2-hydroxy-3-isopropoxybenzoic acid] | 0.125 to 0.25 (≈ 0.138 to 0.276 µM) | 1 to 2 (≈ 1.1 to 2.21 µM) | 1 (≈ 1.1 µM) | 0.5 (≈ 0.552 µM) | > 64 | 0.5 (≈ 0.552 µM) | 0.5 (≈ 0.552 µM) | > 64 | > 64 | 0.5 (≈ 0.552 µM) | 0.05 (≈ 0.0552 µM) | 0.05 (≈ 0.0552 µM) | > 64 |  |  |  | 
3 | C/C(=C\c1ccc(C#N)cc1)C(=O)Nc1ccc(C(=O)N[C@@H](CC(N)=O)C(=O)Nc2ccc(C(=O)Nc3ccc(C(=O)Nc4ccc(C(=O)O)c(O)c4OC(C)C)c(O)c3OC(C)C)cc2)cc1 [Compound 124, (S,E)-4-(4-(4-(4-Amino-2-(4-(3-(4-cyanophenyl)-2-methylacrylamido)benzamido)-4-oxobutanamido)benzamido)-2-hydroxy-3-isopropoxybenzamido)-2-hydroxy-3-isopropoxybenzoic acid] |  |  |  |  |  | 0.5 (≈ 0.54 µM) |  |  |  |  |  | 0.06 (≈ 0.0648 µM) |  | 0.125 (≈ 0.135 µM) | 200 |  | 
4 | CC(C)Oc1c(-n2cc(-c3ccc(NC(=O)[C@H](CC(N)=O)NC(=O)c4ccc(NC(=O)c5ccc(C#N)cc5)cc4)cc3)nn2)ccc(C(=O)Nc2ccc(C(=O)O)cc2)c1O [Compound 119, 4-(4-(4-(4-(4-amino-2-(4-(4-cyanobenzamido)benzamido)-4-oxobutanamido)phenyl)-1H-1,2,3-triazol-1-yl)-2-hydroxy-3-isopropoxybenzamido)benzoic acid] | < 0.03 | 2 (≈ 2.39 µM) |  |  |  |  |  |  |  |  |  |  |  | 0.06 (≈ 0.0718 µM) | 1500 | 8 (≈ 9.57 µM) | < 0.03
5 | CC(C)Oc1c(N)ccc(C(=O)Nc2ccc(C(=O)N[C@@H](CC(N)=O)C(=O)Nc3ccc(C(=O)Nc4ccc(C(=O)Nc5ccc(C(=O)O)cc5)c(O)c4OC(C)C)cc3)cc2)c1O [Compound 49, (S)-4-(4-(4-(4-amino-2-(4-(4-amino-2-hydroxy-3-isopropoxybenzamido)benzamido)-4-oxobutanamido)benzamido)-2-hydroxy-3-isopropoxybenzamido)benzoic acid] | 0.01 to 0.06 (≈ 0.0114 to 0.0685 µM) | 2 to 4 (≈ 2.28 to 4.57 µM) | 32 (≈ 36.5 µM) | 2 (≈ 2.28 µM) | > 64 | 2 (≈ 2.28 µM) | 2 (≈ 2.28 µM) | > 64 | > 64 | 4 (≈ 4.57 µM) | > 64 | > 64 | > 64 |  |  |  | 
6 | CC(C)Oc1c(NC(=O)c2ccc(NC(=O)[C@H](CC(N)=O)NC(=O)c3ccc(NC(=O)c4ccc(C5(C(F)(F)F)N=N5)cc4)cc3)cc2)ccc(C(=O)Nc2ccc(C(=O)O)cc2)c1O [Compound 37, (S)-4-(4-(4-(4-amino-4-oxo-2-(4-(4-(3-(trifluoromethyl)-3H-diazirin-3-yl)benzamido)benzamido)butanamido)benzamido)-2-hydroxy-3-isopropoxybenzamido)benzoic acid] | 8 (≈ 8.94 µM) | > 64 |  |  |  |  |  |  |  |  |  |  |  | 16 (≈ 17.9 µM) | 16000 | > 64 | > 64
7 | CC(C)Oc1c(NC(=O)c2ccc(NC(=O)[C@H](CC(N)=O)NC(=O)c3ccc(NC(=O)c4ccc(C#N)cc4)cc3)cc2)ccc(C(=O)Nc2ccn(C)c2)c1O [Compound 87, (S)-2-(4-(4-cyanobenzamido)benzamido)-N1-(4-((3-hydroxy-2-isopropoxy-4-((1-methyl-1H-pyrrol-3-yl)carbamoyl)phenyl)carbamoyl)phenyl)succinamide] | < 0.03 | > 64 |  |  |  | > 64 |  |  | > 64 |  |  | > 64 |  |  |  |  | 
8 | CC(C)Oc1c(NC(=O)c2ccc(NC(=O)[C@H](CC(N)=O)NC(=O)c3ccc(NC(=O)c4ccc(C#N)cc4)cc3)cc2)ccc(C(=O)NCc2ccc(C(=O)O)cc2)c1O [Compound 89, (S)-4-((4-(4-(4-amino-2-(4-(4-cyanobenzamido)benzamido)-4-oxobutanamido)benzamido)-2-hydroxy-3-isopropoxybenzamido)methyl)benzoic acid] | 0.25 (≈ 0.303 µM) | > 64 |  |  |  | > 64 |  |  | > 64 |  |  | > 64 |  |  |  |  | 
9 | CC(C)COc1c(NC(=O)c2ccc(NC(=O)[C@H](CC(N)=O)NC(=O)c3ccc(NC(=O)c4ccc(C#N)cc4)cc3)cc2)ccc(C(=O)Nc2ccc(C(=O)O)cc2)c1O [Compound 126, (S)-4-(4-(4-(4-amino-2-(4-(4-cyanobenzamido)benzamido)-4-oxobutanamido)benzamido)-2-hydroxy-3-isobutoxybenzamido)benzoic acid] | < 0.03 | > 64 |  |  |  | 0.25 (≈ 0.303 µM) |  |  | > 64 |  |  | 0.25 (≈ 0.303 µM) |  |  |  |  | 
10 | CC(C)Oc1c(NC(=O)c2ccc(NC(=O)[C@H](CC(N)=O)NC(=O)c3ccc(NC(=O)c4ccc([N+](=O)[O-])c(OC(C)C)c4O)cc3)cc2)ccc(C(=O)Nc2ccc(C(=O)O)cc2)c1O [Compound 48, (S)-4-(4-(4-(4-amino-2-(4-(2-hydroxy-3-isopropoxy-4-nitrobenzamido)benzamido)-4-oxobutanamido)benzamido)-2-hydroxy-3-isopropoxybenzamido)benzoic acid] | > 64 | > 64 |  |  |  | > 64 |  |  | > 64 |  |  | > 64 |  |  |  |  | 
